Measured values as given in paper PMC3288125 (Cancer Chemotherapy and Pharmacology, 2011).
Values joined by “and” are separate entries in the source; they are usually repeats but may differ in a detail not shown here. Equal entries are not always repeated. Marks after values point to notes of the source that are not given here.

Tests used:
[1] = tested on: advanced stage solid cancers; test: Tumor response to oral 3-AP; type: in vivo, human
[2] = tested on: advanced stage cancers; conditions: cited from earlier work
[3] = Serum pharmacokinetics and bioavailability of oral 3-AP
[4] = Phase I dose escalation of oral 3-AP: adverse events; type: in vivo
[5] = in vivo, po
[6] = Serum pharmacokinetics of intravenous 3-AP; type: in vivo, human
[7] = of 20 enrolled patients, all dose levels
[8] = Oral Route, oral dose 50 mg, individual patients
[9] = Oral Route, oral dose 100 mg, individual patients
[10] = Oral Route, oral dose 150 mg, individual patients
[11] = Oral Route, oral dose 200 mg, individual patients
[12] = 200 mg, represented grade 4 toxicity
[13] = adverse events attributed to treatment, 20 patients
[14] = Intravenous Route, 100 mg 2-hour infusion, individual patients

SMILES: NC(=S)NN=Cc1ncccc1N [3-AP, 3-aminopyridine-2-carboxaldehyde thiosemicarbazone]
- median duration of stable disease response ([1]; in vivo): 2 months
- Stable disease as the best response [1, 7]: 25%
- Stable disease as the best response, patients [1, 7]: 5
- Therapy discontinued for disease progression ([1]; of 20 patients): 50%
- progressive disease confirmed while on study, patients ([1]; of 20 patients): 10
- Therapy discontinued for disease progression, patients ([1]; of 20 patients, after a median of 2 cycles): 10
- longest progression-free interval ([1]; one patient with pancreatic adenocarcinoma): 15 months
- clinical benefit rate ([1]; treated population with advanced solid tumors): 25%
- durable 18-month complete pelvic tumor response rate ([2]; phase 1, radiation, cisplatin and three-times weekly intravenous 3-AP 25 mg/m^2, advanced stage cervical cancer, 10 of 10 women): 100%
- patients with at least stable disease as a best response ([2]; phase I, intravenous 3-AP in combination with gemcitabine, after 4 months of treatment): 42%
- stable disease rate ([2]; phase II, intravenous 3-AP and gemcitabine, relapsed nonsmall cell lung cancer): 20%
- AUC [3, 8]: 5.2 µM·h and 1.9 µM·h and 3.5 µM·h and 1.6 µM·h and 1.4 µM·h and 4.1 µM·h
- Cmax [3, 8]: 1.5 µM and 0.9 µM and 0.5 µM and 1.1 µM
- MRT [3, 8]: 2.6 h and 3.0 h and 3.4 h
- Tmax [3, 8]: 3.0 h and 0.8 h and 1.0 h and 1.3 h
- AUC [3, 9]: 6.5 µM·h and 2.3 µM·h
- Cmax [3, 9]: 2.5 µM
- MRT [3, 9]: 3.0 h
- AUC [3, 10]: 8.0 µM·h and 21.7 µM·h and 4.3 µM·h and 8.5 µM·h
- Cmax [3, 10]: 5.9 µM and 1.6 µM and 10.1 µM
- MRT [3, 10]: 3.5 h and 1.7 h and 5.4 h and 3.3 h
- Tmax [3, 10]: 0.8 h and 6.0 h
- AUC [3, 11]: 56.0 µM·h and 19.5 µM·h
- Cmax [3, 11]: 0.8 µM and 4.6 µM
- MRT [3, 11]: 3.9 h
- Tmax [3, 11]: 3.0 h
- bioavailability ([3]; human, serum, po): 67 ± 29%
- MRT ([3]; human, serum, po, 50 mg, MRT, oral dose 50 mg, individual patients): 4.2 h
- MRT ([3]; human, serum, po, 100 mg, MRT, oral dose 100 mg, individual patients): 2.8 h
- AUC ([3]; human, serum, po, 150 mg, AUC, Avg., average for patients receiving an oral dose of 150 mg): 10.6 µM·h
- Cmax ([3]; human, serum, po, 150 mg, Cmax, Avg., average for patients receiving an oral dose of 150 mg): 5 µM
- MRT ([3]; human, serum, po, 200 mg, MRT, oral dose 200 mg, individual patients): 2.5 h
- MRT ([3]; human, serum, po, MRT, Avg., mean across dose levels): 3.2 h
- Tmax ([3]; human, serum, po, Tmax, Avg., mean across dose levels): 1.9 h
- (AST/SGOT), Grade 3–4 [4, 12]: 1 (50) ^* No. of Patients (%)
- Neutropenia, Grade 3–4 [4, 12]: 1 (50) ^* No. of Patients (%)
- Thrombocytopenia, Grade 3–4 [4, 12]: 1 (50) ^* No. of Patients (%)
- (AST/SGOT), Grade 3–4 ([4]; All Gr 3–4, all dose levels): 1 (5) No. of Patients (%)
- Anorexia, Grade 3–4 ([4]; All Gr 3–4, all dose levels): 1 (5) No. of Patients (%)
- Fatigue, Grade 3–4 ([4]; All Gr 3–4, all dose levels): 1 (5) No. of Patients (%)
- Hemoglobin (anemia), Grade 3–4 ([4]; All Gr 3–4, all dose levels): 2 (10) No. of Patients (%)
- Hypertension, Grade 3–4 ([4]; All Gr 3–4, all dose levels): 1 (5) No. of Patients (%)
- Hypoxia, Grade 3–4 ([4]; All Gr 3–4, all dose levels): 2 (10) No. of Patients (%)
- Infection, Grade 3–4 ([4]; All Gr 3–4, all dose levels): 1 (5) No. of Patients (%)
- Neutropenia, Grade 3–4 ([4]; All Gr 3–4, all dose levels): 4 (20) No. of Patients (%)
- Thrombocytopenia, Grade 3–4 ([4]; All Gr 3–4, all dose levels): 1 (5) No. of Patients (%)
- (AST/SGOT), all grades [4, 13]: 10%
- (AST/SGOT), all grades, No. of Patients [4, 13]: 2
- Alkaline phosphatase, all grades [4, 13]: 10%
- Alkaline phosphatase, all grades, No. of Patients [4, 13]: 2
- Anorexia, all grades [4, 13]: 20%
- Anorexia, all grades, No. of Patients [4, 13]: 4
- Diarrhea, all grades [4, 13]: 5%
- Diarrhea, all grades, No. of Patients [4, 13]: 1
- Fatigue, all grades [4, 13]: 25%
- Fatigue, all grades, No. of Patients [4, 13]: 5
- Headache, all grades [4, 13]: 20%
- Headache, all grades, No. of Patients [4, 13]: 4
- Hemoglobin (anemia), all grades, No. of Patients [4, 13]: 7
- Hemorrhage, all grades, No. of Patients [4, 13]: 1
- Hyperglycemia, all grades [4, 13]: 15%
- Hyperglycemia, all grades, No. of Patients [4, 13]: 3
- Hypertension, all grades [4, 13]: 5/5%
- Hypertension, all grades, No. of Patients [4, 13]: 1/1
- Neutropenia, all grades, No. of Patients [4, 13]: 11
- Thrombocytopenia, all grades, No. of Patients [4, 13]: 6
- Thrombosis, all grades, No. of Patients [4, 13]: 0
- Vomiting, all grades [4, 13]: 15%
- Vomiting, all grades, No. of Patients [4, 13]: 3
- hematological and infectious adverse events observed, number ([4]; among the 20 patients enrolled): 27
- Hypokalemia, all grades ([4]; human, in vivo): 5%
- Hypokalemia, all grades, No. of Patients ([4]; human, in vivo): 1
- Hypotension, all grades ([4]; human, in vivo): 5/5%
- Hypotension, all grades, No. of Patients ([4]; human, in vivo): 1/1
- Hypoxia, all grades ([4]; human, in vivo): 10%
- Hypoxia, all grades, No. of Patients ([4]; human, in vivo): 2
- Infection, all grades ([4]; human, in vivo): 15%
- Infection, all grades, No. of Patients ([4]; human, in vivo): 3
- Nausea, all grades ([4]; human, in vivo): 25%
- Nausea, all grades, No. of Patients ([4]; human, in vivo): 5
- Therapy discontinued for adverse events ([4]; of 20 patients): 40%
- Therapy discontinued for adverse events, patients ([4]; of 20 patients, after a median of 1 cycle): 8
- DLT Description ([4]; oral 50 mg every 12 Hrs.): grade 3 hypertension
- DLT Description ([4]; oral 150 mg every 12 Hrs.): grade 4 febrile neutropenia
- DLT Description ([4]; oral 200 mg every 12 Hrs.): grade 3 hypoxia
- MTD by the oral route higher than by the intravenous route ([4]; oral vs intravenous route): 33%
- maximum tolerated dose (MTD) of oral 3-AP ([4]; per dose, every 12 hours for 5 doses on days 1–3, 8–10, 15–17 of each 28-day cycle): 150 mg
- CL/F, Avg. ([5]; human): 0.017 L/h
- exposure of orally administered 3-AP versus dose [5]: increased in a dose dependent manner
- AUC [6, 14]: 8.8 µM·h and 4.8 µM·h and 12.1 µM·h and 14.1 µM·h and 7.0 µM·h and 16.1 µM·h and 25.6 µM·h and 10.2 µM·h and 14.5 µM·h and 8.3 µM·h and 11.3 µM·h and 7.2 µM·h and 5.7 µM·h and 10.0 µM·h
- MRT (mean residence time) [6, 14]: 2.4 h and 2.6 h and 3.0 h and 3.5 h and 2.3 h and 2.7 h and 3.1 h
- Cmax ([6]; Intravenous Route, 100 mg 2-hour infusion, serum, individual patients): 2.8 µM and 5.4 µM and 4.7 µM and 6.7 µM and 1.9 µM and 3.7 µM and 2.7 µM and 3.2 µM and 2.9 µM and 2.1 µM and 2.5 µM
- Tmax ([6]; human, serum, iv, 100 mg): 2 h
- AUC ([6]; human, serum, iv, 100 mg, AUC, Avg., 100 mg 2-hour infusion, mean): 9.5 µM·h
- Cmax ([6]; human, serum, iv, 100 mg, Cmax, Avg., 100 mg 2-hour infusion, mean): 3.5 ± 1.4 µM
- MRT ([6]; human, serum, iv, 100 mg, MRT (mean residence time), 100 mg 2-hour infusion, individual patients): 2.5 h
- MRT ([6]; human, serum, iv, 100 mg, MRT, Avg., 100 mg 2-hour infusion, mean): 2.8 h
- Cmax ([6]; read-out: Cmax, Avg., Intravenous Route, 100 mg 2-hour infusion, mean): 2.8 µM
